Laboratory results as given in patent US20230338360A1, “Method of Inhibiting Constitutively Active Phosphorylated FLT3 Kinase” (Arog Pharmaceuticals, Inc., priority 2012, published 2023).
Read-outs that look alike come from different tables or passages of the source.

Legend:
VEGFR-2 = VEGFR-2 (Homo sapiens, UniProt P35968); assay: Inhibition of other RTKs (IC50); format: biochemical
FGFR-2 = FGFR-2 (Homo sapiens, UniProt P21802); assay: Inhibition of other RTKs (IC50); format: biochemical
TIE-2 = TIE-2 (Homo sapiens, UniProt Q02763); assay: Inhibition of other RTKs (IC50); format: biochemical
Src = Src (Homo sapiens, UniProt P12931); assay: Inhibition of other RTKs (IC50); format: biochemical
EGFR = EGFR (Homo sapiens, UniProt P00533); assay: Inhibition of other RTKs (IC50); format: biochemical
erbB2 = erbB2 (Homo sapiens, UniProt P04626); assay: Inhibition of other RTKs (IC50); format: biochemical
[1] = tested on: other kinases (VEGFR-2, FGFR-2, TIE-2, VEGFR, FGFR, EGFR, erbB2, src, Abl, Raf); assay: Selectivity relative to other kinases; format: biochemical; conditions: at clinically achievable concentrations, e.g. VEGFR
[2] = tested on: FLT3 ITD expressing Molm 14 cells; conditions: cited from earlier work; for Percent Apoptosis: Molm 14
[3] = tested on: primary AML patient blast samples harboring the FLT3 ITD mutation; conditions: samples from five patients, increasing concentrations, MTT; cited from earlier work
[4] = tested on: luciferase-expressing MV-411 cells; conditions: 15 mg/kg intraperitoneally, male NSG mice, twice daily 2 days then once daily 2 days; p<0.01; cited from earlier work
Ba/F3 D835Y = conditions: text: viability, read-out: IC50 pFLT3; cited from earlier work
Ba/F3 D835N = conditions: text: viability, read-out: IC50 pFLT3; cited from earlier work
[5] = tested on: primary AML patient blasts with FLT3 D835 mutation; conditions: MTT assay, 3 day exposure; cited from earlier work
Ba/F3 D835Y/ITD = conditions: text: viability, read-out: IC50 pFLT3; cited from earlier work
[6] = tested on: primary AML patient blasts with FLT3 ITD and FLT3 D835Y mutation; conditions: blasts incubated 3 days; patient relapsed after AC220; cited from earlier work
FLT3-ITD MV411 cells = conditions: crenolanib 0.1 uM for 5 minutes and 2 hours, […] radiolabeled cytarabine; cited from earlier work
MV-411 FLT3 ITD cells = conditions: combined with cytarabine in vitro; cited from earlier work
[7] = biological target: wild type FLT3 receptor in HL60 (Homo sapiens, UniProt P36888); conditions: cited from earlier work
[8] = biological target: ABL1(T315I) nonphosphorylated (Homo sapiens, UniProt P00519, T315I)
[9] = biological target: ABL1(T315I) phosphorylated (Homo sapiens, UniProt P00519, T315I)
ABL1-nonphosphorylated = ABL1-nonphosphorylated (Homo sapiens, UniProt P00519)
ABL1-phosphorylated = ABL1-phosphorylated (Homo sapiens, UniProt P00519)

Sequence of TIE-2 (Q02763 23-1124, species assumed): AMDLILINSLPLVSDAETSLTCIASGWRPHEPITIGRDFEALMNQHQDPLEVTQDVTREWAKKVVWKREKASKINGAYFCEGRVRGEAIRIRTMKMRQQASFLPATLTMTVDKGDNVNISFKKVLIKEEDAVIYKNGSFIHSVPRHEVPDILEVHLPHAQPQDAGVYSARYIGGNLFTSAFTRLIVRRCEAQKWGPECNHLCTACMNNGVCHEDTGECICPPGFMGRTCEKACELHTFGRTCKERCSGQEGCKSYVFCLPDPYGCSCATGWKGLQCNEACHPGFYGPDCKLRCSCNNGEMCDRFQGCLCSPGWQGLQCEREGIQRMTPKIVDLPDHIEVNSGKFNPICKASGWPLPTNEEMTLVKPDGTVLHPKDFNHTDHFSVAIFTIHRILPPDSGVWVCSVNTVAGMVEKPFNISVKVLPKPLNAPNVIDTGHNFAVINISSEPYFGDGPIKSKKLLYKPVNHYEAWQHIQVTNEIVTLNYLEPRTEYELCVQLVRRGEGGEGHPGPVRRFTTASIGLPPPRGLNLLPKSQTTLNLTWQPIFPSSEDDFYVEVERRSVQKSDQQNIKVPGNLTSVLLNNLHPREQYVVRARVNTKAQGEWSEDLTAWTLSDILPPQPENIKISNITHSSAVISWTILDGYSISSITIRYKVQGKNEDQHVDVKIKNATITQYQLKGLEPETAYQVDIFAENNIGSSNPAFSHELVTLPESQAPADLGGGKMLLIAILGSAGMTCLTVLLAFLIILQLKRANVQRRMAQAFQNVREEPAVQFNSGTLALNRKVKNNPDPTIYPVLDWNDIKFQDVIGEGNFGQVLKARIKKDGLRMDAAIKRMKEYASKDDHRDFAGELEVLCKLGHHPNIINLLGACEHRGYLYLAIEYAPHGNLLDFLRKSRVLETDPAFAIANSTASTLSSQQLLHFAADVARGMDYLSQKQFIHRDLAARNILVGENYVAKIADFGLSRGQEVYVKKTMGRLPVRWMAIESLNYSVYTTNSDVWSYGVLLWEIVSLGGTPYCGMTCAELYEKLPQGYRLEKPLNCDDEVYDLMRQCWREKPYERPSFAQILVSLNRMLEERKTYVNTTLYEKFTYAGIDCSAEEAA
Sequence of FGFR-2 (P21802 22-821, species assumed): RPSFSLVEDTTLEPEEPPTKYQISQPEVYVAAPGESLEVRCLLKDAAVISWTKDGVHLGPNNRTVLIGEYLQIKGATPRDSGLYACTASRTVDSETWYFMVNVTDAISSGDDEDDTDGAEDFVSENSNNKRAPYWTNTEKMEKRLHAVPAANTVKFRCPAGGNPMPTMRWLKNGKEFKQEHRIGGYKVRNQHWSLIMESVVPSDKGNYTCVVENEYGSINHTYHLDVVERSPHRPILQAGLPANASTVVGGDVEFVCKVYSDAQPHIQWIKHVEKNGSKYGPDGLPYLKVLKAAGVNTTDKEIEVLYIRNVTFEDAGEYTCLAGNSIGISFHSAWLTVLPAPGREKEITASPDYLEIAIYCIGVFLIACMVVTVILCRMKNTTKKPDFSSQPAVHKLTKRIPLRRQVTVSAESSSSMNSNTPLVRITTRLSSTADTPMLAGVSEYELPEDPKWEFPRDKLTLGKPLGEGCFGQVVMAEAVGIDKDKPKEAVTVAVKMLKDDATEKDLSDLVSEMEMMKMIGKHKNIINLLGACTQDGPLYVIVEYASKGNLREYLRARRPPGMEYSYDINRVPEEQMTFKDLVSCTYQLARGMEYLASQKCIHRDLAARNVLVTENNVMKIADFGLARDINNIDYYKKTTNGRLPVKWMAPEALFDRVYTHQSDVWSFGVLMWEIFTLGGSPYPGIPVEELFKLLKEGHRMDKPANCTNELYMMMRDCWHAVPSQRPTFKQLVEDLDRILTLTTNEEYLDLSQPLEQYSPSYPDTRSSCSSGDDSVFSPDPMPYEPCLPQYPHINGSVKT
Sequence of EGFR (P00533 25-1210, species assumed): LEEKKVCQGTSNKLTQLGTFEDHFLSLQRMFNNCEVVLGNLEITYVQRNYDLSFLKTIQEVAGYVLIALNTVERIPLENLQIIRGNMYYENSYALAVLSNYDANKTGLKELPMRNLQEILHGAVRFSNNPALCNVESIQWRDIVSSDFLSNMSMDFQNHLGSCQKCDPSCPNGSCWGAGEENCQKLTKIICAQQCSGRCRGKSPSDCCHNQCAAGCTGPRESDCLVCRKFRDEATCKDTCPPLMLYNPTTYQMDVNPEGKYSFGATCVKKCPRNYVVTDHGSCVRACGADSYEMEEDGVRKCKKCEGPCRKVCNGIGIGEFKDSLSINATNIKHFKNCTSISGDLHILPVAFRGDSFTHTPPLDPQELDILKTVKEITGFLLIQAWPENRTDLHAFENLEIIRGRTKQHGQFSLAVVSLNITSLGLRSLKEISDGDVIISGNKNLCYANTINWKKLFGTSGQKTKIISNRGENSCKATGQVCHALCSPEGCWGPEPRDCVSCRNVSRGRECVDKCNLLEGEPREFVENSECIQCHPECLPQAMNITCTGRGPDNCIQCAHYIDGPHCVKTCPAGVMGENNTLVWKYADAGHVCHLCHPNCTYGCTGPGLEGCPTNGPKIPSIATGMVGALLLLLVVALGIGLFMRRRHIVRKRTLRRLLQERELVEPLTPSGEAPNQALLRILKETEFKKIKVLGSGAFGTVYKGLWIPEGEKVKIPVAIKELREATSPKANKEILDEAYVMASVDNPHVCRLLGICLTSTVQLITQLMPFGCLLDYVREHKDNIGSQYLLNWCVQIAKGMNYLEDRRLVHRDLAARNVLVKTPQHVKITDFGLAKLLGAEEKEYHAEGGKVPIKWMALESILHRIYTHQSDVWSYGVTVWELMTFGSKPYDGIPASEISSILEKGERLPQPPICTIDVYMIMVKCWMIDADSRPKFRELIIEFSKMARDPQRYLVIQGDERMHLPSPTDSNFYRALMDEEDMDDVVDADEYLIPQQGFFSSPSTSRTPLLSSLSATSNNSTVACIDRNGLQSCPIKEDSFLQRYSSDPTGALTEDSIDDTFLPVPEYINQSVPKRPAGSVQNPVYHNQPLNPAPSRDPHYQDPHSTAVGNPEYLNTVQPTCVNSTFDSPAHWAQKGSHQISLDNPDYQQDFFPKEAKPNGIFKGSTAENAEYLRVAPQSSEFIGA
Sequence of erbB2 (P04626 23-1255, species assumed): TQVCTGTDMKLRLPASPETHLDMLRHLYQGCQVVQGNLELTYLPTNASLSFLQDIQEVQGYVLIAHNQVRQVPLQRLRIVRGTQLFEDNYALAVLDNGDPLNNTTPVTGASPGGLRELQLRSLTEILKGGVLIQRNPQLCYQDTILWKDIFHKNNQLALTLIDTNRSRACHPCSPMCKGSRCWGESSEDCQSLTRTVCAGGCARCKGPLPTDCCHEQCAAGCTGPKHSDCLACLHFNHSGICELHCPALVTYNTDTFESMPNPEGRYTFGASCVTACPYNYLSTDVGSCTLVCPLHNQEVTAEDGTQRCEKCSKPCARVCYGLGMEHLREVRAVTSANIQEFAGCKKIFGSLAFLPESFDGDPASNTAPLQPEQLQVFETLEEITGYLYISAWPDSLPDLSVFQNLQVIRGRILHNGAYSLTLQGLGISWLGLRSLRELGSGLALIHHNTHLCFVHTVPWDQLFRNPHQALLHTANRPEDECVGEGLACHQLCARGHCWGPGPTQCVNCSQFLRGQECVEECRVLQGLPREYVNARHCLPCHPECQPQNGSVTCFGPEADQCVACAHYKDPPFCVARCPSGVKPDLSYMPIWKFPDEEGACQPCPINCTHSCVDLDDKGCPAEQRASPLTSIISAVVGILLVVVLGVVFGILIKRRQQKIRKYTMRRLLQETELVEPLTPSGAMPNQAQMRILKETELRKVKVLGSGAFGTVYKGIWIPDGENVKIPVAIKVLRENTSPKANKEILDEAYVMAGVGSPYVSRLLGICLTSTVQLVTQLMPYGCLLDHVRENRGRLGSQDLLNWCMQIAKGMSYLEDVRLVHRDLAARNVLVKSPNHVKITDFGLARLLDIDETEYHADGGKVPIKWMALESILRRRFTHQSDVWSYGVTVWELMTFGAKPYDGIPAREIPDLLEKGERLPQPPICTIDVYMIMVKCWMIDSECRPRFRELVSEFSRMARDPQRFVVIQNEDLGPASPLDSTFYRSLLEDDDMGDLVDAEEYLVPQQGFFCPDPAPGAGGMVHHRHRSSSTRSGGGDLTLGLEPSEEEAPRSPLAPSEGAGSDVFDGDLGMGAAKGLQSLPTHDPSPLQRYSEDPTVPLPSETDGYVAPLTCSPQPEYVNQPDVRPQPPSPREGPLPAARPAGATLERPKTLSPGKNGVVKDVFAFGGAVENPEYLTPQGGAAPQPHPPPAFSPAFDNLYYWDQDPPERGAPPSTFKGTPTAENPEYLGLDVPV
Sequence of Src (P12931 whole entry, species assumed): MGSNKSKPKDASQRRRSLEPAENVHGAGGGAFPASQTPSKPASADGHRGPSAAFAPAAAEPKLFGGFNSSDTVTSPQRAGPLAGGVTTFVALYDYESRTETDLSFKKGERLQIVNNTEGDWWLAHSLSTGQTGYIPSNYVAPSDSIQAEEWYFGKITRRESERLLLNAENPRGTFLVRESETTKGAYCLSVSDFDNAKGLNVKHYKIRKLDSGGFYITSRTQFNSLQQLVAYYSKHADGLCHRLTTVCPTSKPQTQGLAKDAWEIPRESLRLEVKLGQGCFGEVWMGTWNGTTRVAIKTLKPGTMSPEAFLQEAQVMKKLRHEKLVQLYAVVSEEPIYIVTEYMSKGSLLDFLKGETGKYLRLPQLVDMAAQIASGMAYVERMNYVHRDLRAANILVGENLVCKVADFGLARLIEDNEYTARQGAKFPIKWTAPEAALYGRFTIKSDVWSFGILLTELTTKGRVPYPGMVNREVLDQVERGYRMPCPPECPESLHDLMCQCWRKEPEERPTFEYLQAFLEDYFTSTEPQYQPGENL

CC1(COc2ccc3c(c2)ncn3-c2ccc3cccc(N4CCC(N)CC4)c3n2)COC1 [Crenolanib Besylate]
IC50 (VEGFR-2): 273 nM | IC50 (FGFR-2): > 5070 nM | IC50 (TIE-2): > 5070 nM | IC50 (Src): 4980 nM | IC50 (EGFR): > 10000 nM | IC50 (erbB2): > 10000 nM | inhibition of other known RTKs or serine/threonine kinases [1]: does not inhibit | Percent Apoptosis ([2]; compound concentration 20 nM): 32.79% | Percent Apoptosis ([2]; compound concentration 50 nM): 44.99% | Percent Apoptosis ([2]; compound concentration 100 nM): 51.17% | cytotoxic response of Molm 14 cells compared to sorafenib ([2]; concentrations 20 nM to 100 nM): significantly higher as compared to sorafenib | cytotoxicity [3]: Cytotoxicity was observed in a dose dependent fashion | MV-411-luciferase bone marrow infiltration compared to vehicle [4]: siginificantly suppressed | IC50 (Ba/F3 D835Y): 6.38 nM | IC50 (Ba/F3 D835N): 3.93 nM | cytotoxic response compared with sorafenib [5]: greater cytotoxic response | IC50 (Ba/F3 D835Y/ITD): 20.4 nM | cytotoxic effect [6]: induced a cytotoxic effect | cytarabine accumulation (FLT3-ITD MV411 cells): does not decrease cytarabine accumulation | anti-leukemic effect of combination with cytarabine (MV-411 FLT3 ITD cells): Synergistic in vitro anti-leukemic effects | phosphorylation inhibition of wild type FLT3 receptor [7]: increased phosphorylation inhibition in a dose dependent fashion | Kd [8]: 12000 nM | Kd [9]: 760 nM | Kd (ABL1-nonphosphorylated): 600 nM | Kd (ABL1-phosphorylated): 88 nM

CNC(=O)c1cc(Oc2ccc(NC(=O)Nc3ccc(Cl)c(C(F)(F)F)c3)cc2)ccn1 [Sorafenib, reference compound]
Percent Apoptosis ([2]; compound concentration 20 nM): 13.07% | Percent Apoptosis ([2]; compound concentration 50 nM): 30.21% | Percent Apoptosis ([2]; compound concentration 100 nM): 44.09% | cytotoxic effect [6]: ineffective
